Test results: patent US20130137629A1, “COMBINATION TREATMENT FOR METABOLIC DISORDERS” (WELLSTAT THERAPEUTICS CORPORATION, priority 2006, published 2013)

Assays:
[1] = system: db/db mice; assay: Example 2: db/db mice with glucose above 400 mg/dL treated for 4 weeks; circulating glucose and pancreatic insulin (ECL assay); format: in vivo; settings: Compound BI 100 mg/kg by oral gavage, exendin 3 μg/kg or 10 μg/kg i.p.
Procedure: Peripheral blood glucose levels of db/db mice was monitored. When the glucose levels exceeded 400 mg/dL the mice were divided into groups of 6 mice each. The mice in each group were given either vehicle or Compound BI (100 mg/kg by oral gavage)+/−i.p. injections of exendin-amide (Bachem, King of Prussia, PA) as indicated below for 4 weeks. • 1) Vehicle • 2) Vehicle+Exendin (3 μg/kg) • 3) Vehicle+Exendin (10 μg/kg) • 4) Compound BI • 5) Compound BI+Exendin (3 μg/kg) • 6) Compound BI+Exendin (10 μg/kg)
After four weeks of treatment, the mice were bled via the retroorbital sinus and sera sent to Anilytics, Inc. (Gaithersburg, Md.) for analysis of circulating glucose levels. The pancreata were collected, weighed, flash frozen and then processed for pancreatic insulin assays. Briefly, the pancreas was placed into pancreatic extraction solution (75% ethanol and 25% 0.15N HCl) and the volume adjusted to 1 mL per 100 mg of pancreas. The pancreas was then sonicated and stored at −20° C. overnight. The next day, the samples were centrifuged at 2500 rpm for 5 minutes at 4° C. to pellet unsolubilized material. 1.5 mL of supernatant was placed in an Eppendorf tube and spun in a microcentrifuge at 1300 rpm for 20 minutes at 4° C. to pellet any remaining unsolubilized material. […] The samples were then read on an M384 instrument (BioVeris Corp., Gaithersburg, Md.). […]

[2] = system: late-stage db/db mice; assay: Example 1: late-stage db/db mice treated daily for 4 weeks; serum glucose, serum insulin and islet insulin; format: in vivo
Procedure: Serum glucose and insulin and pancreatic insulin were measured.

[3] = system: db/db mice; assay: Example 5: ten week-old db/db mice, Compound BI +/- P32/98 for 4 weeks; format: in vivo; settings: Compound BI 100 mg/kg p.o., P32/98 10 mg/kg twice a day by gavage; for Circulating glucose levels: FIG. 11; for Pancreatic insulin: FIG. 12
Procedure: Ten week-old db/db mice were given vehicle or Compound BI (100 mg/kg, p.o.)+/−P32/98 (10 mg/kg, twice a day by gavage) as indicated for 4 weeks. Assays for circulating glucose and pancreatic insulin were conducted as in Example 3.

[4] = system: db/db mice; settings: previous studies; cited from earlier work
[5] = system: streptozotocin-induced diabetes; settings: Pospisilik et al., Diabetes 52:741-750, 2003; cited from earlier work

Row | Compound | Circulating glucose levels ([1]; FIG. 4) | Pancreatic insulin ([1]; FIG. 5) | Serum glucose ([2]; daily for 4 weeks, Compound BI 100 mg/kg/day p.o., Exendin-4 amide 10 microgram/day i.p., FIG. 1) | Islet insulin ([2]; daily for 4 weeks, Compound BI 100 mg/kg/day p.o., Exendin-4 amide 10 microgram/day i.p., FIG. 2) | Serum insulin ([2]; daily for 4 weeks, Compound BI 100 mg/kg/day p.o., Exendin-4 amide 10 microgram/day i.p., FIG. 3) | Insulin resistance ([2]; inferred from glucose lowering without a significant increase in serum insulin, 4 weeks) | Circulating glucose levels [3] | Pancreatic insulin [3] | Islet insulin content [4] | Activity in streptozotocin-induced diabetes [5]
1 | Cc1cccc(C)c1COc1cccc(C(=O)CCC(=O)O)c1 [Compound BI, 4-(3-(2,6-Dimethylbenzyloxy)phenyl)-4-oxobutyric acid] | significant reduction in circulating glucose levels | corresponding increase in pancreatic insulin | reduced serum glucose substantially | had more insulin than either of those two groups | without a significant increase in serum insulin | reduced insulin resistance | reduced circulating glucose levels | increased pancreatic insulin levels | preserves islet insulin content | 
2 | CC[C@H](C)[C@H](N)C(=O)N1CCSC1 [P32/98, reference compound] |  |  |  |  |  |  | slight reduction in circulating glucose levels | no increase in pancreatic insulin |  | active
